{"source": "patent US10183915B2", "about": "“Axially chiral isomers, and preparation methods therefor and pharmaceutical uses thereof” (MEDSHINE DISCOVERY INC., priority 2015, dated 2019)", "target": "T1, human URAT1 (Homo sapiens, UniProt Q96S37)", "T1 construct": "host or cells: HEK293", "T1 sequence (Q96S37 1-553)": "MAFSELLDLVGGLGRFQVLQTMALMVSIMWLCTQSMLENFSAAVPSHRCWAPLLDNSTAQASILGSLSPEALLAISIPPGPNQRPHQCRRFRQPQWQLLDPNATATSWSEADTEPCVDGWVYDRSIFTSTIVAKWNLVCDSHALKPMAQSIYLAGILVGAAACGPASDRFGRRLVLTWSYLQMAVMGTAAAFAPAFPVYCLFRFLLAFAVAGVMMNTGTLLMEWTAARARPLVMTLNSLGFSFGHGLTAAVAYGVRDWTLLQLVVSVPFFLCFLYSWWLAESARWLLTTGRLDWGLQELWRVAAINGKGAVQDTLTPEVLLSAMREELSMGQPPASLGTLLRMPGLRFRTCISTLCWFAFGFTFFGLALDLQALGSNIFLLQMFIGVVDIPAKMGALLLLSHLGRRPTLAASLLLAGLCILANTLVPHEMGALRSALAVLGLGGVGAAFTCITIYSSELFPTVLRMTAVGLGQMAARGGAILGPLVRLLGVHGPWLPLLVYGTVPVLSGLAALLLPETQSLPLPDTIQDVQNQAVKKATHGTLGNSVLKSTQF", "assay": "Inhibition of URAT1-mediated uptake of 14C-labeled uric acid in stably transfected HEK293 cells", "format": "cell-based", "conditions": "multiple parallel tests", "protocol": "A HEK293 cell line stably transfected with URAT-1 (uric acid transporter) gene was used to determine the IC50 value of the compound to inhibit the reabsorption of uric acid.\nURAT-1 (HEK293) cell lines: HEK293 cell line with human URAT1 stable transfected (the cell line was constructed by WuXi AppTec in Shanghai).\n4) The cells were diluted with culture medium to 2.5×10^5 cells/mL. The diluted cells was seeded into 24-well plates (800 μg/hole, 2×10^5 cells/hole) coated with rat tail collagen and the plates were incubated at 37° C. under 5% CO2 overnight.\n1) The cells were inoculated on the 24-well plates and discarded 16-18 hours later. Add 600 μL HBSS buffer to each hole and clean it two times\n2) Absorb the HBSS buffer and then add 180 μL of HBSS buffer to each hole.\n1) Dissolve the compound powder in 100% DMSO. […]\n10 μL of ^14C-Uric acid solution was diluted and added to each well of 24-well plates and the final concentration of ^14C-uric acid was 50 μM. […] Collect the cell lysis in liquid scintillation and read the Tri-Carb signal in liquid scintillation counter after adding the liquid scintillation solution.\nBased on the luminescence data, the inhibitory effect of compounds on URAT-1 was analyzed, and the percentage of inhibition data was calculated. […]"}
{"smiles": "O=C(O)CSc1nnc(Br)n1-c1ccc(C2CC2)c2ccccc12", "note": "(single isomer, unassigned) [(+)-Lesinurad]", "values": [{"measurement": "In vitro potency against URAT1 compared with (−)-Lesinurad and (±)-Lesinurad", "value": "obviously higher in vitro potency"}]}
